Data taken from ChEMBL document CHEMBL4002586, “Aurone Mannich base derivatives as promising multifunctional agents with acetylcholinesterase inhibition, anti-β-amyloid aggragation and neuroprotective properties for the treatment of Alzheimer's disease” (Eur J Med Chem, 2017).
Calls of active or inactive are those of the source. No cut-off for these calls is given here.

Tests used:
[1] = target: T1, Acetylcholinesterase (Electrophorus electricus, UniProt O42275); test: Mixed-type inhibition of Electrophorus electricus AChE pretreated for 15 mins followed by varying levels of acetylthiocholine iodide substrate addition by Lineweaver-Burk plot analysis
T1 sequence (O42275 whole entry): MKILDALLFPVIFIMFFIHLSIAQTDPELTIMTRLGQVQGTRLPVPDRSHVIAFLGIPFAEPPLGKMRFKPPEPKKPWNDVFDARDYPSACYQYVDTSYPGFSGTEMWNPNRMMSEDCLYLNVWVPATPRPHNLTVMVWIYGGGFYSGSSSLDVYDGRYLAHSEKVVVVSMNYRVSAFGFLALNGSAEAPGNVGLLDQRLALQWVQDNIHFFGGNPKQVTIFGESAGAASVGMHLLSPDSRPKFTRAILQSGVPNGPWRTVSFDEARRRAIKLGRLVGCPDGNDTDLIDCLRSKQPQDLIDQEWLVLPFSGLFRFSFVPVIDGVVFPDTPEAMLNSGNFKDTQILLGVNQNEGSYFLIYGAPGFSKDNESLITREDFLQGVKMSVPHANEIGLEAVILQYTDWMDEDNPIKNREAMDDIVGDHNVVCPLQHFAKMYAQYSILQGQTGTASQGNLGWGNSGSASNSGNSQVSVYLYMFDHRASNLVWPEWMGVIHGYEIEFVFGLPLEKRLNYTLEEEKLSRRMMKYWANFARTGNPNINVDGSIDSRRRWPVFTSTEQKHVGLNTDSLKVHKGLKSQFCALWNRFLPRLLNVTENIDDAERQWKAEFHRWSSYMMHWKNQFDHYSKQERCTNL

[2] = target: Acetylcholinesterase (Homo sapiens, UniProt P22303); test: Inhibition of human erythrocyte AChE using acetylthiocholine iodide as substrate measured after 15 mins by Ellman's method
Acetylcholinesterase (Homo sapiens, UniProt P22303), sequence (P22303 whole entry): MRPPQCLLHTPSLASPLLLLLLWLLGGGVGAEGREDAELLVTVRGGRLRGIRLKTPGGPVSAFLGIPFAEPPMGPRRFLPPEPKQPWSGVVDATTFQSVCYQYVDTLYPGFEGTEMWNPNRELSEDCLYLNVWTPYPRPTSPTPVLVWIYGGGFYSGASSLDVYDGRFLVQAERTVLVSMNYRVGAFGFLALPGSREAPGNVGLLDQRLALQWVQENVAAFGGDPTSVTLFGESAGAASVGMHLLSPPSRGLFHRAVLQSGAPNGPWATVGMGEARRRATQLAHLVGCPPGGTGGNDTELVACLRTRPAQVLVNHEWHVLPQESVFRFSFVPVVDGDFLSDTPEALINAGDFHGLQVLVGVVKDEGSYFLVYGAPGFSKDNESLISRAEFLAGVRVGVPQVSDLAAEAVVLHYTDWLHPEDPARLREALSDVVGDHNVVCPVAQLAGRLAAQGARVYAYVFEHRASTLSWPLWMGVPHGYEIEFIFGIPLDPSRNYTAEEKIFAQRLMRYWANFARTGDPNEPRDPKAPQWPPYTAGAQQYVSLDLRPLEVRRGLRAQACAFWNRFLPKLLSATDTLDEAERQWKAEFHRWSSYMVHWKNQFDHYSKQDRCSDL

[3] = system: PC-12; test: Neuroprotective activity against H2O2-induced damage in rat PC12 cells assessed as increase in cell viability at 1 to 50 uM pretreated for 2 hrs followed by H2O2 challenge measured after 24 hrs by MTT assay; format: functional, cell-based
[4] = target: T2, Acetylcholinesterase (Rattus norvegicus, UniProt P37136); test: Inhibition of AChE in rat brain cortex homogenates using acetylthiocholine iodide as substrate in presence of BuChE inhibitor tetraisopropyl pyrophosphoramide measured after 15 mins by Ellman's method
T2 sequence (P37136 whole entry): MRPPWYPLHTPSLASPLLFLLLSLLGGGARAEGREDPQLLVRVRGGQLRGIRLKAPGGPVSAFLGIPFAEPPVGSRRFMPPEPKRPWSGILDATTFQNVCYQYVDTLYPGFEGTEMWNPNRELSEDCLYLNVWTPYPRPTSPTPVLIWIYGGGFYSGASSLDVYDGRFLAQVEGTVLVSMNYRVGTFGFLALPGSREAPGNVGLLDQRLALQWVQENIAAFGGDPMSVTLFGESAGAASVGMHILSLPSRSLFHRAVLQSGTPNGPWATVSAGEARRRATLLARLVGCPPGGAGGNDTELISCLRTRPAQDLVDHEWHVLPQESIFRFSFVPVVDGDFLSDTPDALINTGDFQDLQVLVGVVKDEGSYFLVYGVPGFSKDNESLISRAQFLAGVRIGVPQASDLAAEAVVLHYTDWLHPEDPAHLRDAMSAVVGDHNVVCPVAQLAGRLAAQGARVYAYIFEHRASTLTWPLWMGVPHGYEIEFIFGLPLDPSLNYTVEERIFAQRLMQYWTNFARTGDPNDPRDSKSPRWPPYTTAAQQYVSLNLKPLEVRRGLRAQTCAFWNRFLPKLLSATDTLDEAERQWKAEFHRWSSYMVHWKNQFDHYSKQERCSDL

[5] = system: PC-12; test: Neuroprotective activity against H2O2-induced damage in rat PC12 cells assessed as reduction in LDH release at 0.1 to 50 uM pretreated for 2 hrs followed by H2O2 challenge measured after 24 hrs; format: functional, cell-based
[6] = target: T3, Amine oxidase [flavin-containing] B (Homo sapiens, UniProt P27338); test: Inhibition of recombinant human MAO-B expressed in baculovirus infected BTI insect cells at 10 uM using kynuramine as substrate incubated for 30 mins by fluorescence assay relative to control; conditions: 0.5 h
T3 sequence (P27338 whole entry): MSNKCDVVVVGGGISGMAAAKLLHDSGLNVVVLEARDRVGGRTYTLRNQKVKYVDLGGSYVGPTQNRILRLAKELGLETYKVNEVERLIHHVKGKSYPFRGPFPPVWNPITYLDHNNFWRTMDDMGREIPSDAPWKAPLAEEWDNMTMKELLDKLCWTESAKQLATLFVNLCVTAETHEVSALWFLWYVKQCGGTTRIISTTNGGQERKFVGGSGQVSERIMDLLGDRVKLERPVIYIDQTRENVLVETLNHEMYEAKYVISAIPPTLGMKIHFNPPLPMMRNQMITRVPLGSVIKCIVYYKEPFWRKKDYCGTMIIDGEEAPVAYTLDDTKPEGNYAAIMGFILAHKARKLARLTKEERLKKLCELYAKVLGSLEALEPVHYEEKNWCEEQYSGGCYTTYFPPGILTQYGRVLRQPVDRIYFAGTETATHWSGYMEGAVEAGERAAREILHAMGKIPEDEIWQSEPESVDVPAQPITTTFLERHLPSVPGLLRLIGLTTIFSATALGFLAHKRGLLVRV

[7] = Permeability of compound at 100 ug/ml after 18 hrs by PAMPA; format: physicochemical; conditions: read-out: permeability
[8] = target: T1, Acetylcholinesterase; test: Inhibition of Electrophorus electricus AChE using acetylthiocholine iodide as substrate measured after 15 mins by Ellman's method
[9] = target: butyrylcholinesterase (BuChE) (Rattus norvegicus, UniProt Q9JKC1); test: Inhibition of BuChE in rat serum at 50 uM using butyrylthiocholine as substrate measured after 15 mins by Ellman's method relative to control; conditions: probe butyrylthiocholine
butyrylcholinesterase (BuChE), sequence (Q9JKC1 whole entry): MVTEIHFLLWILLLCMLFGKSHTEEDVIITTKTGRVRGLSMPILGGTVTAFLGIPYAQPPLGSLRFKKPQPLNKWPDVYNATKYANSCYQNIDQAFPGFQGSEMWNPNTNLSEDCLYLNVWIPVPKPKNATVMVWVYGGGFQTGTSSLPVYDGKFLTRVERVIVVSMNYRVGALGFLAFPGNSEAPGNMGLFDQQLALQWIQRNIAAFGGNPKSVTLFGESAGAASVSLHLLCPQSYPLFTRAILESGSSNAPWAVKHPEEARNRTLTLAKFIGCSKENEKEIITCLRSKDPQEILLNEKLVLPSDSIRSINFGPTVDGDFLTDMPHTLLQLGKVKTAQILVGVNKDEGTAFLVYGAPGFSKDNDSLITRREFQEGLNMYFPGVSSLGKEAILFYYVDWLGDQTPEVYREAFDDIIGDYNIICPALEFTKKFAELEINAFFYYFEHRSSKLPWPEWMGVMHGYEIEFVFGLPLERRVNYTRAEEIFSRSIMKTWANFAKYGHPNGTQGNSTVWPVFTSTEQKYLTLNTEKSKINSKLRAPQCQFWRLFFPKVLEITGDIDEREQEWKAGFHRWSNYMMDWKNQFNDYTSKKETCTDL

[10] = target: T4, Amine oxidase [flavin-containing] A (Homo sapiens, UniProt P21397); test: Inhibition of recombinant human MAO-A expressed in baculovirus infected BTI insect cells at 10 uM using kynuramine as substrate incubated for 30 mins by fluorescence assay relative to control; conditions: 0.5 h
T4 sequence (P21397 whole entry): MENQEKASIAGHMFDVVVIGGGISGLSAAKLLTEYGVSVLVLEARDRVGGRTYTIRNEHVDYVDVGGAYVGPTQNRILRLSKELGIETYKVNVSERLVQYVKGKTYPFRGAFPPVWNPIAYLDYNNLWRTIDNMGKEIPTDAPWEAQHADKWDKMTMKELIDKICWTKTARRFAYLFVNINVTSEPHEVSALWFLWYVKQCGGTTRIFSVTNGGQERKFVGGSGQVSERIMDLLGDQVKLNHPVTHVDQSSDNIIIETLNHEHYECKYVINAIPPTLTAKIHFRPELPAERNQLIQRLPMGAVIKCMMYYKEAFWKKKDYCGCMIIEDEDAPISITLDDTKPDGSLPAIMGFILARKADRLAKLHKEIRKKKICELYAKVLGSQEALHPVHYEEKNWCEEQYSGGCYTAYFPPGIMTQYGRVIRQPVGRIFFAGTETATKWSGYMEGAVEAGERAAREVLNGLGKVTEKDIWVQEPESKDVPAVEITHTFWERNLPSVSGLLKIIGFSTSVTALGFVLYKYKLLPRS

[11] = Antioxidant activity assessed as inhibition of AAPH-induced peroxyl radical generation at 5 uM measured as trolox equivalent preincubated for 15 mins followed by AAPH addition measured every 60 secs for 90 mins by ORAC-FL assay; format: functional
[12] = Metal chelating activity assessed as compound-Cu2+ complex formation at 37.5 uM in presence of CuCl2 after 30 mins by UV-visible spectrophotometric analysis; format: functional
[13] = system: PC-12; test: Cytotoxicity against rat PC12 cells at <50 uM measured after 48 hrs by MTT assay; format: cell-based; conditions: pc-12, 48 h
[14] = Metal chelating activity assessed as mole fraction of compound required to show 2:1 stoichiometry for Cu2+-compound complex at 37.5 uM after 30 mins by UV-vis spectrophotometric method; format: functional
[15] = Metal chelating activity assessed as compound-Al3+ complex formation at 37.5 uM in presence of AlCl3 after 30 mins by UV-visible spectrophotometric analysis; format: functional
[16] = target: Amyloid-beta precursor protein (Homo sapiens) (UniProt P05067); test: Inhibition of self-induced aggregation of HFIP-treated human amyloid beta (1 to 42 residues) at 25 uM after 24 hrs by thioflavin T-based fluorometric assay relative to control
Amyloid-beta precursor protein (Homo sapiens), sequence (P05067 whole entry, the tested form may be a part): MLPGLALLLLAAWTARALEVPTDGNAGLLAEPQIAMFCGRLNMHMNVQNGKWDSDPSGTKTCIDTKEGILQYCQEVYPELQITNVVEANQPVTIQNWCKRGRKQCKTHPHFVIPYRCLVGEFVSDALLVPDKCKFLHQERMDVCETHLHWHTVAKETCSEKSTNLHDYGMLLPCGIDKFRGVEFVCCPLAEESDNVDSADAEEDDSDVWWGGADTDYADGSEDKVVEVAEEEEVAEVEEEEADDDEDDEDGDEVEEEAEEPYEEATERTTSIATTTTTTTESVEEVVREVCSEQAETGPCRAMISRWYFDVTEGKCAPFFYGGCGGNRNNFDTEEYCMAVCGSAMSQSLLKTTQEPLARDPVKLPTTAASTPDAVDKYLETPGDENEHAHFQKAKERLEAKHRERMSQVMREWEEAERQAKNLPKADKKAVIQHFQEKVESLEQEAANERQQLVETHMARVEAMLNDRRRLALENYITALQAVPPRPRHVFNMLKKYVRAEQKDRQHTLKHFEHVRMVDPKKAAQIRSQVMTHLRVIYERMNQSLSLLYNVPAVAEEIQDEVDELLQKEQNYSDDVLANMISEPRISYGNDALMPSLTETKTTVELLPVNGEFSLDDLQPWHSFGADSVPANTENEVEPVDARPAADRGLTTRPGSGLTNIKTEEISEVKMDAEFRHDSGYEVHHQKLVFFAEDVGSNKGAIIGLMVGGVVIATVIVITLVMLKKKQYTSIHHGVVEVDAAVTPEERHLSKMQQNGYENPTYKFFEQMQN

[17] = Metal chelating activity assessed as compound-Fe2+ complex formation at 37.5 uM in presence of FeSO4 after 30 mins by UV-visible spectrophotometric analysis; format: functional
[18] = Metal chelating activity assessed as compound-Zn2+ complex formation at 37.5 uM in presence of ZnCl2 after 30 mins by UV-visible spectrophotometric analysis; format: functional
[19] = Inhibition of Cu2+-mediated aggregation of human amyloid beta (1 to 42 residues) at 25 uM after 24 hrs by thioflavin T-based fluorometric assay relative to control; format: functional

## COc1cc2c(cc1OC)C(=O)/C(=C/c1ccc(CN3CCCCC3)c(O)c1)O2
[1]
  Ki: 12 nM
[2]
  IC50: 37.1 nM
[3]
  Activity: Active
[4]
  IC50: 8.78 nM
[5]
  Activity: Active
[6]
  inhibition at 10 µM: 32%
[7]
  Papp at 18 h, 100 ug/ml: 13.5 ×10⁻⁶ cm/s
[8]
  IC50: 21.2 nM
[9]
  inhibition at 0.25 h, 50 µM: 12.9%
[10]
  inhibition at 10 µM: 15.3%
[11]
  Activity: 1.66 equiv
[12]
  Activity: Active
[13]
  Activity: Non-Toxic
[14]
  Activity: 0.5 molar ratio
[15]
  Activity: Active
[16]
  inhibition: 58.1%
[17]
  Activity: Active
[18]
  Activity: inactive
[19]
  inhibition: 45.1%
